In BindingDB's records for doi:10.7270/Q2VT1QHF (Vanderbilt Screening Center For Gpcrs, Ion Channels and …, 2010):

Biological target: Metabotropic glutamate receptor 4 (Homo sapiens, UniProt Q14833)
Assay: PubChem AID 2197

Metabotropic glutamate receptor 4, sequence (Q14833 whole entry): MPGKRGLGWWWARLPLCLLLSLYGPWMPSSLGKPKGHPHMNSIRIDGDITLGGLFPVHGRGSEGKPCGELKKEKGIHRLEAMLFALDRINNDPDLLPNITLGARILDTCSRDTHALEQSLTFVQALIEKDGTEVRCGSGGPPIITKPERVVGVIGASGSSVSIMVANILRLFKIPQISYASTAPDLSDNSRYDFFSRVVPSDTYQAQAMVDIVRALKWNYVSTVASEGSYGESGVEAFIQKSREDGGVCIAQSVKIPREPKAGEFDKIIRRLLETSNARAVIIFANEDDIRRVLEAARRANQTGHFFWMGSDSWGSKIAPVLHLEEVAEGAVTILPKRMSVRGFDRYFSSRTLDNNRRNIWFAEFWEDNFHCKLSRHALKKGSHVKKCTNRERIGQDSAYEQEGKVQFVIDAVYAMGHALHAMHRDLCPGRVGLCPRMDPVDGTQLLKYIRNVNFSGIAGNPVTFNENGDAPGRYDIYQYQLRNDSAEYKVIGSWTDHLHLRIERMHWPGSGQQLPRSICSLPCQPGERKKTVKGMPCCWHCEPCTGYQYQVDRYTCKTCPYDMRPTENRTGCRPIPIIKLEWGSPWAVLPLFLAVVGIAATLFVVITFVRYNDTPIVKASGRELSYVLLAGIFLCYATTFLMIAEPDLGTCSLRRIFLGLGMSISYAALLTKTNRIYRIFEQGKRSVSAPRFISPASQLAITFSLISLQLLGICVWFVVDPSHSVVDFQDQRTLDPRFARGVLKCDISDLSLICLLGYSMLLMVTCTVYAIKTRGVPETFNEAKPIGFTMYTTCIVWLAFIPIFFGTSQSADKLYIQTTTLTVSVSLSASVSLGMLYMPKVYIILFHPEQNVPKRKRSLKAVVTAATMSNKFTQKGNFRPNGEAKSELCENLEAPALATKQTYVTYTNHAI

Structure (SMILES)	EC50
O=C(Nc1ccc(-n2c(O)ccc2O)c(Cl)c1)c1ccccn1 [N-[3-chloro-4-(2,5-dioxopyrrolidin-1-yl)phenyl]pyridine-2-carboxamide]	5.96 µM
O=C(Nc1ccc(-n2c(O)c3c(c2O)[C@H]2CC[C@@H]3O2)c(Cl)c1)c1ccccn1 [VU0405235-1]	1.44 µM
